Results as given in PubChem BioAssay AID1963836 (Molecular Pharmacology Branch, DTP, NCI, 2024).

Tested on: 857933-349-R-J2-PDC complex spheroid viability
Test: Anticancer human tumor 857933-349-R-J2-PDC patient-derived colon adenocarcinoma cell line growth inhibition [POLQ]
Details: for IC50: curve of first compound; for viability, T/C: stronger effect = lower value
Procedure, shortened: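 PDC + HUVEC + MSC complex spheroids; POLQ inhibitors ± partner drugs; top conc. at/near clinical Cmax, else 10 microM (SN-38 1 microM), half-log dilutions; 37 degrees C, 5% CO2.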

[1] = second compound 0.0316 µM, first compound 0.00316 µM
[2] = second compound 0.0316 µM, first compound 0.01 µM
[3] = second compound 0.0316 µM, first compound 0.0316 µM
[4] = second compound 0.0316 µM, first compound 0.1 µM
[5] = second compound 0.0316 µM, first compound 0.316 µM
[6] = second compound 0.0316 µM, first compound 1 µM
[7] = second compound 0.1 µM, first compound 0.00316 µM
[8] = second compound 0.1 µM, first compound 0.01 µM
[9] = second compound 0.1 µM, first compound 0.0316 µM
[10] = second compound 0.1 µM, first compound 0.1 µM
[11] = second compound 0.1 µM, first compound 0.316 µM
[12] = second compound 0.1 µM, first compound 1 µM
[13] = second compound 0.316 µM, first compound 0.00316 µM
[14] = second compound 0.316 µM, first compound 0.01 µM
[15] = second compound 0.316 µM, first compound 0.0316 µM
[16] = second compound 0.316 µM, first compound 0.1 µM
[17] = second compound 0.316 µM, first compound 0.316 µM
[18] = second compound 0.316 µM, first compound 1 µM
[19] = second compound 1 µM, first compound 0.00316 µM
[20] = second compound 1 µM, first compound 0.01 µM
[21] = second compound 1 µM, first compound 0.0316 µM
[22] = second compound 1 µM, first compound 0.1 µM
[23] = second compound 1 µM, first compound 0.316 µM
[24] = second compound 1 µM, first compound 1 µM
[25] = second compound 3.16 µM, first compound 0.00316 µM
[26] = second compound 3.16 µM, first compound 0.01 µM
[27] = second compound 3.16 µM, first compound 0.0316 µM
[28] = second compound 3.16 µM, first compound 0.1 µM
[29] = second compound 3.16 µM, first compound 0.316 µM
[30] = second compound 3.16 µM, first compound 1 µM
[31] = second compound 10 µM, first compound 0.00316 µM
[32] = second compound 10 µM, first compound 0.01 µM
[33] = second compound 10 µM, first compound 0.0316 µM
[34] = second compound 10 µM, first compound 0.1 µM
[35] = second compound 10 µM, first compound 0.316 µM
[36] = second compound 10 µM, first compound 1 µM
[37] = second compound 0.0316 µM, first compound 3.16 µM
[38] = second compound 0.0316 µM, first compound 10 µM
[39] = second compound 0.1 µM, first compound 3.16 µM
[40] = second compound 0.1 µM, first compound 10 µM
[41] = second compound 0.316 µM, first compound 3.16 µM
[42] = second compound 0.316 µM, first compound 10 µM
[43] = second compound 1 µM, first compound 3.16 µM
[44] = second compound 1 µM, first compound 10 µM
[45] = second compound 3.16 µM, first compound 3.16 µM
[46] = second compound 3.16 µM, first compound 10 µM
[47] = second compound 10 µM, first compound 3.16 µM
[48] = second compound 10 µM, first compound 10 µM
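Further: spheroids exposed to compounds for seven days before readout.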

C=CCn1c(=O)c2cnc(Nc3ccc(N4CCN(C)CC4)cc3)nc2n1-c1cccc(C(C)(C)O)n1 + Cc1cccc(N(C)C(=O)C2C(O)CCN2c2nc(C)cc(C(F)(F)F)c2C#N)c1
IC50 (second compound 0.0316 µM): > 1 µM
IC50 (second compound 0.1 µM): > 1 µM
IC50 (second compound 0.316 µM): > 1 µM
IC50 (second compound 1 µM): > 1 µM
IC50 (second compound 3.16 µM): > 1 µM
IC50 (second compound 10 µM): > 1 µM
viability, T/C [1]: 103%
viability, T/C [2]: 98.2%
viability, T/C [3]: 96.8%
viability, T/C [4]: 112%
viability, T/C [5]: 96.2%
viability, T/C [6]: 79.3%
viability, T/C [7]: 99.4%
viability, T/C [8]: 98.9%
viability, T/C [9]: 88.2%
viability, T/C [10]: 84%
viability, T/C [11]: 99%
viability, T/C [12]: 77.7%
viability, T/C [13]: 97.8%
viability, T/C [14]: 97.2%
viability, T/C [15]: 114%
viability, T/C [16]: 106%
viability, T/C [17]: 93%
viability, T/C [18]: 68.2%
viability, T/C [19]: 92.8%
viability, T/C [20]: 91.4%
viability, T/C [21]: 108%
viability, T/C [22]: 103%
viability, T/C [23]: 117%
viability, T/C [24]: 80.9%
viability, T/C [25]: 112%
viability, T/C [26]: 88.9%
viability, T/C [27]: 111%
viability, T/C [28]: 89%
viability, T/C [29]: 94.1%
viability, T/C [30]: 77.8%
viability, T/C [31]: 82.1%
viability, T/C [32]: 111%
viability, T/C [33]: 104%
viability, T/C [34]: 87%
viability, T/C [35]: 101%
viability, T/C [36]: 71%

CCCS(=O)(=O)Nc1ccc(F)c(C(=O)c2c[nH]c3ncc(-c4ccc(Cl)cc4)cc23)c1F + Cc1cccc(N(C)C(=O)C2C(O)CCN2c2nc(C)cc(C(F)(F)F)c2C#N)c1
IC50 (second compound 0.0316 µM): 6.96 µM
IC50 (second compound 0.1 µM): 6.4 µM
IC50 (second compound 0.316 µM): 6.8 µM
IC50 (second compound 1 µM): 6.73 µM
IC50 (second compound 3.16 µM): 6.62 µM
IC50 (second compound 10 µM): 6.51 µM
viability, T/C [3]: 87.7%
viability, T/C [4]: 104%
viability, T/C [5]: 97%
viability, T/C [6]: 99.3%
viability, T/C [37]: 98.8%
viability, T/C [38]: 28.1%
viability, T/C [9]: 106%
viability, T/C [10]: 105%
viability, T/C [11]: 93.6%
viability, T/C [12]: 94.5%
viability, T/C [39]: 98.7%
viability, T/C [40]: 19.1%
viability, T/C [15]: 107%
viability, T/C [16]: 99.6%
viability, T/C [17]: 93.2%
viability, T/C [18]: 95.5%
viability, T/C [41]: 109%
viability, T/C [42]: 24.2%
viability, T/C [21]: 95.6%
viability, T/C [22]: 111%
viability, T/C [23]: 99.5%
viability, T/C [24]: 91.3%
viability, T/C [43]: 103%
viability, T/C [44]: 23.6%
viability, T/C [27]: 92.1%
viability, T/C [28]: 96%
viability, T/C [29]: 82.2%
viability, T/C [30]: 100%
viability, T/C [45]: 102%
viability, T/C [46]: 25.2%
viability, T/C [33]: 115%
viability, T/C [34]: 99%
viability, T/C [35]: 97%
viability, T/C [36]: 99.9%
viability, T/C [47]: 96.5%
viability, T/C [48]: 22.3%

CNCc1ccc(-c2[nH]c3cc(F)cc4c3c2CCNC4=O)cc1 + Cc1cccc(N(C)C(=O)C2C(O)CCN2c2nc(C)cc(C(F)(F)F)c2C#N)c1
IC50 (second compound 0.0316 µM): > 10 µM
IC50 (second compound 0.1 µM): > 10 µM
IC50 (second compound 0.316 µM): > 10 µM
IC50 (second compound 1 µM): > 10 µM
IC50 (second compound 3.16 µM): > 10 µM
IC50 (second compound 10 µM): > 10 µM
viability, T/C [3]: 98.9%
viability, T/C [4]: 111%
viability, T/C [5]: 96.3%
viability, T/C [6]: 99.2%
viability, T/C [37]: 78.9%
viability, T/C [38]: 99.7%
viability, T/C [9]: 103%
viability, T/C [10]: 90.7%
viability, T/C [11]: 90.7%
viability, T/C [12]: 76.4%
viability, T/C [39]: 102%
viability, T/C [40]: 104%
viability, T/C [15]: 97.3%
viability, T/C [16]: 104%
viability, T/C [17]: 108%
viability, T/C [18]: 95.5%
viability, T/C [41]: 103%
viability, T/C [42]: 89.5%
viability, T/C [21]: 120%
viability, T/C [22]: 98.5%
viability, T/C [23]: 90.7%
viability, T/C [24]: 86.5%
viability, T/C [43]: 104%
viability, T/C [44]: 79.3%
viability, T/C [27]: 88.7%
viability, T/C [28]: 112%
viability, T/C [29]: 95.7%
viability, T/C [30]: 105%
viability, T/C [45]: 95.4%
viability, T/C [46]: 80.5%
viability, T/C [33]: 102%
viability, T/C [34]: 106%
viability, T/C [35]: 117%
viability, T/C [36]: 68.4%
viability, T/C [47]: 116%
viability, T/C [48]: 86.3%

COc1cccc(OCCCN)c1-c1cc(Nc2cnc(C#N)cn2)n[nH]1 + Cc1cccc(N(C)C(=O)C2C(O)CCN2c2nc(C)cc(C(F)(F)F)c2C#N)c1
IC50 (second compound 0.0316 µM): 0.763 µM
IC50 (second compound 0.1 µM): > 1 µM
IC50 (second compound 0.316 µM): > 1 µM
IC50 (second compound 1 µM): > 1 µM
IC50 (second compound 3.16 µM): 0.511 µM
IC50 (second compound 10 µM): > 1 µM
viability, T/C [1]: 96.2%
viability, T/C [2]: 94.5%
viability, T/C [3]: 97%
viability, T/C [4]: 86.9%
viability, T/C [5]: 64.6%
viability, T/C [6]: 45.5%
viability, T/C [7]: 105%
viability, T/C [8]: 84.2%
viability, T/C [9]: 89.2%
viability, T/C [10]: 73%
viability, T/C [11]: 66.3%
viability, T/C [12]: 50.7%
viability, T/C [13]: 102%
viability, T/C [14]: 99.8%
viability, T/C [15]: 90.9%
viability, T/C [16]: 56.8%
viability, T/C [17]: 61%
viability, T/C [18]: 55.5%
viability, T/C [19]: 110%
viability, T/C [20]: 96.3%
viability, T/C [21]: 85.6%
viability, T/C [22]: 83%
viability, T/C [23]: 56.4%
viability, T/C [24]: 52.9%
viability, T/C [25]: 98.7%
viability, T/C [26]: 110%
viability, T/C [27]: 81.8%
viability, T/C [28]: 69.6%
viability, T/C [29]: 59.9%
viability, T/C [30]: 40.7%
viability, T/C [31]: 90.8%
viability, T/C [32]: 86.5%
viability, T/C [33]: 77.4%
viability, T/C [34]: 67.9%
viability, T/C [35]: 61.2%
viability, T/C [36]: 52.5%
